Laboratory results reported in patent US6713051B2, “Antiperspirant or deodorant compositions” (Unilever Home & Personal Care USA division of Conopco, Inc., priority 2001, dated 2004).

How the values were obtained:
Type in all cases: cell-based
interleukin-6 (IL-6) = assay: Skin organotypic culture analysis: AP-induced IL-6 release into the medium; conditions: for IL-6: 24 h, Nil 51.7, AP 118.8
Description: (§1) The cultures were then incubated at 37° C., 5% CO2, and 95% relative humidity (standard cell culture conditions) for 24 h. The culture medium was assayed for the pro-inflammatory cytokine interleukin-6 (IL-6) and after washing to remove the AP formulation, the viability of the culture was determined using the Thiazoyl blue (MTT) assay (Mosmann, T. J. Immunol. Methods 65, p55 (1983). IL-6 was determined using an Immunoassay (Quantikine, R&D systems).
In this Example, skin organotypic cultures (Epiderm™, MatTek, USA) were treated topically with the above-identified AP formulation and the trans-10-cis-12 conjugated linoleic acid (TC CLA) was introduced into the medium. The cultures were then incubated at 37° C., 5% CO2, and 95% relative humidity (standard cell culture conditions) for 24 h. The culture medium was assayed for the pro-inflammatory cytokine interleukin-6 (IL-6) and after washing to remove the AP formulation, the viability of the culture was determined by the method described in Example 2.
as §1, with “hours.” for “h.”, “MTT assay.” for “Thiazoyl blue (MTT) assay (Mosmann, T. J. Immunol. Methods 65, p55 (1983).”, “ELISA assay (R&D” for “Immunoassay (Quantikine, R&D”

human PPARα = target: T1, human PPARα (Homo sapiens, UniProt Q07869); assay: PPARα reporter gene assay (firefly luciferase, transiently transfected Cos-7 cells); conditions: for Result (superior activity class achieved): class reached; for Pass at (lowest tested administration level at which the test material passed): pass = activation greater than oleic acid at 100 μM, commonly >1.57 times vehicle control, 24 h treatment
T1 construct: The coding region of a human PPARα cDNA was inserted downstream of the CMV promoter; expressed in transfected cells; host or cells: Cos-7 cells, transient transfection (pcDNA3.1(−)-PPARα, pRSV-RXRα, 3xPPRE-TK-luc reporter, pRL-TK)
T1 sequence (Q07869 1-468): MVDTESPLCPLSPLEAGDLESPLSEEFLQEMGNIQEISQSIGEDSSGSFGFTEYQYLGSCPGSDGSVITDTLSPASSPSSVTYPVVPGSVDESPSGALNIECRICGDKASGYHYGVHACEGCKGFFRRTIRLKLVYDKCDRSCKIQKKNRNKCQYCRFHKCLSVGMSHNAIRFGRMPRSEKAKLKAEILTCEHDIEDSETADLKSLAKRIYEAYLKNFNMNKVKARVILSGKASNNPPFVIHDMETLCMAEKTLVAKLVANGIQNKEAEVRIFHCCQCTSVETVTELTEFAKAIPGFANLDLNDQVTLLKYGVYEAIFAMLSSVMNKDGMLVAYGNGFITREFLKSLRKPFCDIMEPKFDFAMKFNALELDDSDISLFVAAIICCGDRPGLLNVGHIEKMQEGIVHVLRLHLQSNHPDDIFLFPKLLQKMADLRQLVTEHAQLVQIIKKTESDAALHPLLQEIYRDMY
T1 sequence (P19793 1-462 partner): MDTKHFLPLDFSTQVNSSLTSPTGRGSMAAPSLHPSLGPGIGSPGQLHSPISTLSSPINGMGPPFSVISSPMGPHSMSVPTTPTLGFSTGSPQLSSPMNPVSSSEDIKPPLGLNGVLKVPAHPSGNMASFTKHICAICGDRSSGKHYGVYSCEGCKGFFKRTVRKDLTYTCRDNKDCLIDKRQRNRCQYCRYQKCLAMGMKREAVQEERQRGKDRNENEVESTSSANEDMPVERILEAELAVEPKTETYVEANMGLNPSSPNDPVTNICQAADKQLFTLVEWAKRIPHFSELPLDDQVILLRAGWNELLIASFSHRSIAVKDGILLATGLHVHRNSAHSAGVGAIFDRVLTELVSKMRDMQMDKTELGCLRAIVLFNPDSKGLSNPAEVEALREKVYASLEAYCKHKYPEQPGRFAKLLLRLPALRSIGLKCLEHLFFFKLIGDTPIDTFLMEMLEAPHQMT
Description: One convenient reporter assay for determining whether a fatty acid material is PPARα activating is based upon the firefly luciferase gene.
Fatty acids were screened to identify PPAR activating fatty acids using a reporter assay.
This assay relied on ligands binding to and activating the PPARα protein, which, in turn, activated genes under the control of PPAR response elements (PPRE). In the assay, the firefly luciferase gene was cloned behind a promoter containing 3 copies of the fatty acid binding protein PPRE.
The assay was performed by transient transfection of Cos-7 cells with a mixture of four DNA plasmids. These were:
1) PPAR reporter gene construct (Modified pNF-KB-luc reporter vector (Firefly luciferase reporter vector commercially available form Clontech (NF-kB response element, TK minimal promoter, luc^+, f1 origin, pUC origin, amp^r)). A tandem repeat of 3 PPAR response elements (PPREs) corresponding to the PPRE found in the fatty acid binding protein promoter was inserted upstream of the minimal TK promoter to replace the NF-κB response element);
2) 2) Over-expressing PPARα construct (Modified pcDNA3.1(−) vector (A mammalian expression vector commercially available from Invitrogen (CMV promoter, f1 origin, SV40 origin, ColE1 origin, neo^r, amp^r)). The coding region of a human PPARα cDNA was inserted downstream of the CMV promoter of pcDNA3.1 (−)). […] The coding region of a human RXRα cDNA has been inserted downstream of the RSV promoter. (Gift of V. K. K. Chatterjee, Addenbrooke's Hospital, Cambridge)) 4) Control luciferase construct (pRL-TK Renilla luciferase reporter vector commercially available from Promega (HSV-TK promoter, T7 promoter, Rluc^+, ori, amp^r)). For the transfection, DNA was made up as a mix of PPAR reporter gene: PPARα: RXRα: control in the ratio 40:4:3:3.
Cos-7 cells were grown in Dulbecco's modified Eagle's Medium, also herein referred to as DMEM with 10% foetal calf serum, herein also referred to as FCS at 37° C., 5% CO2 to 80% confluency. Cells were then plated out in 24 well plates at 50,000 cells per well and incubated overnight in DMEM with 10% FCS at 37° C., 5% CO2. Cells were then transfected using the LipofectAMINE reagent (GibcoBRL). For each well 0.4 μg of DNA mix (in 25 μl of DMEM) was incubated with 1 μl LipofectAMINE (in 25 μl of DMEM) for 45 minutes. The mixture was then made up to 250 μl per well and added to the cells, which had been washed with 1 ml of DMEM. Cells were then incubated for 5 hours at 37° C., 5% CO2 and 250 μl DMEM with 10% SBCS (charcoal stripped bovine calf serum) added. Cells were incubated for 18 hours at 37° C., 5% CO2 before being treated with the appropriate compound/extract. Test compounds were made up as 1000× stocks (in DMSO or ethanol as appropriate) and diluted into DMEM with 10% SBCS (500 μl per well) immediately before being added to cells. Each treatment was performed in triplicate. The transfection mix was removed from the cells and replaced with the treatment mix, and incubated for 24 hours at 37° C., 5% CO2. Cells were washed with 1 ml of PBS (without calcium or magnesium) and then lysed with 100 μl per well of 1× Passive Lysis Buffer (as supplied with Promega Dual Luciferase assay kit). Lysis was allowed to continue for 15 minutes and then the lysate was assayed for Firefly and Renilla luciferase activity using the Promega Dual Luciferase assay kit. For the assay, 20 μl of lysate was taken and assayed as described in the kit instructions using a MLX microtiter™ plate luminometer (Dynex).
Firefly luciferase activity (PPAR driven) was normalised against the Renilla luciferase value for that well and the mean calculated for the three wells treated with the same agent. Activity was then expressed as fold activation over the vehicle (DMSO or ethanol) control values for that particular plate.

[1] = tested on: Human foreskin keratinocytes; assay: Keratinocyte cornified envelope assay; conditions: for Cornified envelopes assay: 4 days, control (0 μM) 17996
Description: (§2) Human foreskin keratinocytes (passage 3) were seeded at 4000 cells/well in 96 well plates in Keratinocyte Growth Medium (abbreviated to KGM) containing 0.03 mM calcium and grown for 3 days at 37° C. The cells were then treated with PPAR ligands in KGM containing 0.03 mM calcium for 4 days prior to harvest. Stock solutions of PPAR ligands were dissolved in dimethylsulphoxide (DMSO) and diluted in KGM before adding to the cells. […] The harvested cells were washed 3× in phosphate buffered saline (PBS) and extracted in 1% Triton X100, 50 mM (tris[hydroxymethyl]aminomethane) (Tris) pH 8.0 plus protease inhibitors pepstatin and leupeptin (100 μl/well). The extract was assayed for DNA content using the Pico Green DNA assay (Molecular Probes, Inc.).
After Tris-triton extraction for TGase assay, the cells were extracted with 100 μl/well of 2% SDS, 20 mM DTT for 16 hours at 60° C. Once extracted the SDS suspension from each well was individually filtered through polyviylidenefluoride (PVDF) membrane (Immobilon-P™ Transfer Membrane, Millipore) which had been pre-blocked in Tris Buffered Saline (TBS) containing 0.5% (v/v) Tween 20, 0.5% using a Dot Blot TM Apparatus (Bio-Rad). Each sample was washed several times with TBS/Tween buffer before the membrane was removed from the apparatus, rinsed in distilled water and silver stained using silver stain kit (Bio-Rad). The stained dot blot membrane was scanned and analysed using Phoretix Array™ software.
Cultured keratinocytes were treated with pinoleic acid for 4 days. The cells were extracted with 2% SDS, 20 mM DTT and the cornified envelopes were quantified, after filtration using a PDVF membrane, by silver staining, as described above.

[2] = tested on: Human foreskin keratinocytes; assay: Keratinocyte proliferation analysis (DNA content per well, Pico Green); conditions: for DNA: 4 days, control (0 μM) 1.66
Description: as §2
Cultured keratinocytes were treated with cis-9-trans-11 conjugated linoleic acid (CT-CLA) for 4 days. The cells were extracted with Tris-1% Triton X100 and the DNA content per well was determine by the Pico Green assay in accordance with the above described procedure.

Compound | Result at (lowest administration level at which super or MS activity was achieved) (human PPARα) [μm] | Result (superior activity class achieved) (human PPARα) | Pass at (lowest tested administration level at which the test material passed) (human PPARα) [μm] | further results
CCCCC/C=C\C=C\CCCCCCCCC(=O)O [CLA (t10, c12), trans-10-cis-12 conjugated linoleic acid] | 100 | super (superior activity [super] (50% higher—at least 2.25 times PPARα activation)) | 50 | AP-induced IL-6 release (interleukin-6 (IL-6); 5 and 500 μM, Dunnet's test p<0.01): significantly decrease; IL-6 (interleukin-6 (IL-6); Table 5: 5 μM in medium + AP): 59.6 pg/mL; IL-6 (interleukin-6 (IL-6); Table 5: 500 μM in medium + AP): 57.1 pg/mL
hexadecatrienoic acid | 10 | super (superior activity [super] (50% higher—at least 2.25 times PPARα activation)) | 10 | cornified envelope formation, statement ([1]; Example 9: 1-10 μM, 1 way ANOVA, p<0.05): significantly increase; Cornified envelopes assay ([1]; Table 10: 0.1 μM): 17617 arb. Units; Cornified envelopes assay ([1]; Table 10: 1 μM): 36017 arb. Units; Cornified envelopes assay ([1]; Table 10: 10 μM): 40997 arb. Units; keratinocyte DNA synthesis activity, statement ([2]; Example 14: 0.1-10 μM, 1 way ANOVA, p<0.05): significantly reduce; DNA ([2]; Table 15: 0.1 μM): 0.98 ng/well; DNA ([2]; Table 15: 1 μM): 1.27 ng/well; DNA ([2]; Table 15: 10 μM): 1.13 ng/well
CCC=CCC=CC/C=C\CCCCCCCCCC(=O)O [cis-11,14,17 eicosatrienoic acid] | 100 | MS (more superior activity [MS] (100% higher—at least 3 times PPARα activation)) | 100 | 
CCCCC/C=C\C/C=C\C/C=C\C/C=C\CCCC(=O)O [Arachidonic acid] |  |  | 25 | 
CCCCCC/C=C/CCCCCCCCCC(=O)O [trans vaccenic acid] |  |  | 10 | 
CCCC/C=C/CCCCCCCCCCCC(=O)O [Trans-13-octadecenoic acid] |  |  | 10 | 
CCCCC/C=C\C/C=C\CC/C=C/CCCC(=O)O [Columbinic acid, columbinic acid] | 25 | super (superior activity [super] (50% higher—at least 2.25 times PPARα activation)) | 10 | 
CCCCCCC(O)CCCCCCCCCCC(=O)O (centres unmarked) [12-hydroxystearic acid] | 25 | MS (more superior activity [MS] (100% higher—at least 3 times PPARα activation)) | 10 | 
